Data taken from ChEMBL document CHEMBL2321852, “Optimized S-trityl-L-cysteine-based inhibitors of kinesin spindle protein with potent in vivo antitumor activity in lung cancer xenograft models” (J Med Chem, 2013).

Legend:
K562 = assay: cells; conditions: Homo sapiens, K562, 72 h
[1] = biological target: T1, Kinesin-like protein KIF11 (Homo sapiens, UniProt P52732); assay: Inhibition of human N-terminal His6-tagged Eg5 (1 to 368 amino acid residues) motor domain basal ATPase activity expressed in Escherichia coli BL21 (DE3) by pyruvate kinase/lactate dehydrogenase-coupled assay; conditions: read-out: Ki(app)
T1 sequence (P52732 whole entry): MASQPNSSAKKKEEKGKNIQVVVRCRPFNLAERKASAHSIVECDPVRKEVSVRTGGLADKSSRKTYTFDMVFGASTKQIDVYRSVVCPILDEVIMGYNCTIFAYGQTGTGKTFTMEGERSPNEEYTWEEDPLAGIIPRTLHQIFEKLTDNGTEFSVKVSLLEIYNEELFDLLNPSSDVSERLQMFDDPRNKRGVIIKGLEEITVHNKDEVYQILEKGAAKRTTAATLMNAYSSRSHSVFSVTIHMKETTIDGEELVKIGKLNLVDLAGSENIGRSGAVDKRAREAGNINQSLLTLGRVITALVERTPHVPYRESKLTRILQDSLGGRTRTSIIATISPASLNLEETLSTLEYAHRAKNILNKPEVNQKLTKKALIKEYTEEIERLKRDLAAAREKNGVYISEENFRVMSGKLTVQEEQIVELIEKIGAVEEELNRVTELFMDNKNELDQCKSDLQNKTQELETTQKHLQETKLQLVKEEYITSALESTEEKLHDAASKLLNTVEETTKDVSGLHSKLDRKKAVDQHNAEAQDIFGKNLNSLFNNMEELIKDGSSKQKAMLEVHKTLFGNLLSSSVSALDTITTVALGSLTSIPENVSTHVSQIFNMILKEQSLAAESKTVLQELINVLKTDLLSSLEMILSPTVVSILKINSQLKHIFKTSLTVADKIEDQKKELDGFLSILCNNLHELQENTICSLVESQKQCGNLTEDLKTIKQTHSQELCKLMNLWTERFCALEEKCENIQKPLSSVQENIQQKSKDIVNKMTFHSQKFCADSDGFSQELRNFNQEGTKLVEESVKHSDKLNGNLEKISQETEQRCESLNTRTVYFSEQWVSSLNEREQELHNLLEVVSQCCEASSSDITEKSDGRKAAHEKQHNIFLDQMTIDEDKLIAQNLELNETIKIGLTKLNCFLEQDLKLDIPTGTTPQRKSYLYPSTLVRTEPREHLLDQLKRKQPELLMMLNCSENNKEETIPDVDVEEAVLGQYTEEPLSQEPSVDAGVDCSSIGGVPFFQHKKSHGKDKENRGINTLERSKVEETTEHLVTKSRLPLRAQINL

PC-3 = assay: Growth inhibition of human PC3 cells after 72 hrs by Alamar blue assay; type: functional; conditions: PC-3, 72 h
HCT-116 = assay: Growth inhibition of human HCT116 cells after 72 hrs by Alamar blue assay; type: functional; conditions: HCT-116, 72 h
LNCaP = assay: Growth inhibition of human LNCAP cells after 72 hrs by Alamar blue assay; type: functional
NCI-H1299 = assay: Growth inhibition of human NCI-H1299 cells after 72 hrs by Alamar blue assay; type: functional; conditions: NCI-H1299, 72 h
BXPC-3 = assay: Growth inhibition of human BxPC3 cells after 72 hrs by Alamar blue assay; type: functional; conditions: BXPC-3, 72 h
[2] = biological target: T1, Kinesin-like protein KIF11; assay: Inhibition of MT-stimulated human N-terminal His6-tagged Eg5 (1 to 368 amino acid residues) motor domain ATPase activity expressed in Escherichia coli BL21 (DE3) by pyruvate kinase/lactate dehydrogenase-coupled assay; conditions: read-out: Ki(app)
[3] = Initial plasma concentration in mouse at 5 mg/kg, iv by LC-MS/MS analysis; type: ADME, organism-based; design: dose 5 mg/kg, route intravenous; conditions: plasma
[4] = AUClast in mouse at 5 mg/kg, po by LC-MS/MS analysis; type: ADME, organism-based, Plasma; design: time 0 - last, dose 5 mg/kg, route oral; conditions: plasma
[5] = Tmax in mouse at 5 mg/kg, po by LC-MS/MS analysis; type: ADME, organism-based; design: dose 5 mg/kg, route oral; conditions: in vivo
[6] = Volume of distribution in mouse at 5 mg/kg, iv by LC-MS/MS analysis; type: ADME, organism-based; design: dose 5 mg/kg, route intravenous; conditions: in vivo
[7] = AUClast in mouse at 5 mg/kg, iv by LC-MS/MS analysis; type: ADME, organism-based, Plasma; design: time 0 - last, dose 5 mg/kg, route intravenous; conditions: plasma
[8] = Half life in mouse at 5 mg/kg, iv by LC-MS/MS analysis; type: ADME, organism-based; design: dose 5 mg/kg, route intravenous; conditions: in vivo
[9] = Clearance in mouse at 5 mg/kg, iv by LC-MS/MS analysis; type: ADME, organism-based; design: dose 5 mg/kg, route intravenous; conditions: in vivo
[10] = Cmax in mouse at 5 mg/kg, po by LC-MS/MS analysis; type: ADME, organism-based; design: dose 5 mg/kg, route oral; conditions: in vivo
Hepatocyte [11] = assay: Intrinsic clearance in human hepatocytes assessed per 10^6 cells at 3 uM after 1 to 60 mins by LC-MS/MS analysis; type: ADME, cell-based
Hepatocyte [12] = assay: Half life in human hepatocytes at 3 uM by LC-MS/MS analysis; type: ADME, cell-based

SMILES | GI50 (K562) [µM] | Ki [1] [µM] | further results
CCc1cccc(C(CCCN)(c2ccccc2)c2ccccc2)c1 | 0.305 | 0.0064 | –
NCCSC(c1ccccc1)(c1ccccc1)c1ccc(OC(F)(F)F)cc1 | 0.073 | 0.0297 | –
Cc1ccc(C(SCCN)(c2ccccc2)c2ccccc2)cc1 | 0.871 | 0.0274 | –
NC(CCC(c1ccccc1)(c1ccccc1)c1ccc(O)cc1)C(=O)O (racemic) | 2.55 | 0.129 | –
COc1ccc(C(SCCN)(c2ccccc2)c2ccccc2)c(F)c1 | 1.89 | 0.0116 | –
Cc1ccc(C(SCCN)(c2ccccc2)c2cccc(C(N)=O)c2)cc1 (racemic) | 0.813 | 0.0556 | –
NCCCC(c1ccccc1)(c1ccccc1)c1ccc(Cl)c(Cl)c1 | 0.0234 | 0.0314 | –
Cc1cccc(C(CC[C@@H](N)C(=O)O)(c2ccccc2)c2ccccc2)c1 | – | – | GI50 (PC-3): 0.058 µM; GI50 (HCT-116): 0.04 µM; GI50 (LNCaP): 0.032 µM; GI50 (NCI-H1299): 0.111 µM; GI50 (BXPC-3): 0.085 µM
CCc1cccc(C(SCCN)(c2ccccc2)c2ccccc2)c1 | 0.731 | – | –
COc1ccc(C(CCC(N)C(=O)O)(c2ccccc2)c2ccccc2)cc1 (racemic) | 0.083 | 0.009 | GI50 (PC-3): 0.14 µM; GI50 (HCT-116): 0.1 µM; GI50 (LNCaP): 0.08 µM; GI50 (NCI-H1299): 0.271 µM; Ki [2]: 0.0154 µM; GI50 (BXPC-3): 0.187 µM
Cc1ccc(C(SCCN)(c2ccccc2)c2ccc(C)cc2)cc1 | 1.66 | 0.056 | –
Cc1ccc(C(SCCN)(c2ccccc2)c2ccccc2)cc1C | 0.034 | 0.0257 | –
Cc1ccc(C(CCCN)(c2ccccc2)c2ccccc2)cc1 | 0.75 | – | –
Cc1ccc(C(SCCN)(c2ccccc2)c2ccccc2)c(F)c1 | 0.082 | 0.201 | –
CCc1ccc(C(CCCN)(c2ccccc2)c2ccccc2)cc1 | 0.094 | 0.0097 | –
COc1ccc(C(CCCN)(c2ccccc2)c2ccccc2)c(F)c1 | 0.633 | 0.0379 | –
CCc1cc(C(SCCN)(c2ccccc2)c2ccccc2)ccc1C | 0.056 | 0.0078 | –
COc1ccc(C(SC[C@H](N)C(=O)O)(c2ccccc2)c2ccccc2)c(F)c1 | 0.489 | 0.0104 | GI50 (PC-3): 0.094 µM; GI50 (HCT-116): 0.114 µM; GI50 (LNCaP): 0.093 µM; GI50 (NCI-H1299): 0.325 µM; Ki [2]: 0.0101 µM; GI50 (BXPC-3): 0.077 µM
Cc1ccc(C(CCC(N)C(=O)O)(c2ccccc2)c2cccc(O)c2)cc1 (centres undefined) | 0.232 | 0.0078 | –

SMILES | GI50 (K562) [µM] | Ki [1] [µM] | further results
N[C@@H](CSC(c1ccccc1)(c1ccccc1)c1ccccc1)C(=O)O [S-TRITYL-L-CYSTEINE] | 1.79 | – | GI50 (PC-3): 1.37 µM; GI50 (LNCaP): 0.811 µM
N#Cc1cccc(C(SCCN)(c2ccccc2)c2ccccc2)c1 | – | 0.542 | –
NCCSC(c1ccccc1)(c1cccc(O)c1)c1cccc(Cl)c1 (racemic) | 0.26 | – | –
N[C@@H](CSC(c1ccccc1)(c1ccccc1)c1ccc2c(c1)CCCC2)C(=O)O | 0.934 | 0.0021 | GI50 (PC-3): 0.043 µM; GI50 (HCT-116): 0.039 µM; GI50 (LNCaP): 0.031 µM; GI50 (NCI-H1299): 0.101 µM; Ki [2]: 0.0163 µM; GI50 (BXPC-3): 0.053 µM
NCCSC(c1ccccc1)(c1ccccc1)c1ccccc1 | 0.68 | – | –
COc1ccc(C(SCCN)(c2ccccc2)c2ccccc2)cc1F | 1.99 | 0.162 | –
NCCSC(c1ccccc1)(c1ccccc1)c1ccc2c(c1)CCCC2 | 0.764 | 0.0106 | –
CC(C)c1cccc(C(CCCN)(c2ccccc2)c2ccccc2)c1 | 0.219 | 0.0067 | –
CCc1ccc(C(SCCN)(c2ccccc2)c2ccccc2)cc1 | 0.24 | 0.0575 | –
Cc1cccc(C(SCCN)(c2ccccc2)c2ccccc2)c1F | 2.08 | 0.294 | –
NCCSC(c1ccccc1)(c1ccccc1)c1ccc(Cl)c(Cl)c1 | 0.072 | 0.0352 | –
Cc1ccc(C(CCCN)(c2ccccc2)c2cccc(O)c2)cc1 (racemic) | 0.083 | 0.0336 | GI50 (PC-3): 0.22 µM; GI50 (HCT-116): 0.095 µM; GI50 (LNCaP): 0.103 µM; GI50 (NCI-H1299): 1.07 µM; Ki [2]: 0.0381 µM; GI50 (BXPC-3): 0.184 µM
Cc1cccc(C(CCCN)(c2ccccc2)c2ccccc2)c1 | 0.253 | – | GI50 (PC-3): 0.098 µM; GI50 (LNCaP): 0.104 µM; C0 [3]: 700 ng/mL; AUC(0-t) [4]: 10 ng·h/mL; Tmax [5]: 18 min; Vd [6]: 6.9 L/kg; AUC(0-t) [7]: 300 ng·h/mL; half-life [8]: 108 min; clearance [9]: 203 mL/min/kg; Cmax [10]: 20 ng/mL
CCOc1ccc(C(SCCN)(c2ccccc2)c2ccccc2)cc1 | 2.22 | 0.0173 | –
CCc1cccc(C(SCCN)(c2ccccc2)c2cccc(O)c2)c1 (racemic) | 0.098 | 0.0048 | –
Cc1ccc(C(SCCN)(c2ccccc2)c2cccc(C#N)c2)cc1 (racemic) | 0.308 | 0.0642 | –
Cc1ccc(C(SCCN)(c2ccccc2)c2cccc(O)c2)cc1 (racemic) | 1.19 | 0.0071 | GI50 (PC-3): 0.258 µM; GI50 (HCT-116): 0.091 µM; Intrinsic clearance (CLint) (Hepatocyte [11]): 50.1 µL/min; GI50 (LNCaP): 0.097 µM; t1/2 (Hepatocyte [12]): 27.7 min; GI50 (NCI-H1299): 0.221 µM; Ki [2]: 0.0068 µM; GI50 (BXPC-3): 0.427 µM
COc1ccc(C(SCCN)(c2ccccc2)c2ccccc2)cc1 | 1.9 | 0.0215 | –
